Reference: ChEMBL document CHEMBL4270502, “From bench (laboratory) to bed (hospital/home): How to explore effective natural and synthetic PAK1-blockers/longevity-promoters for cancer therapy” (Eur J Med Chem, 2017)
Values belong to the compound of their own block, whether it stands above or below them.

What was measured:
A549 [1] = assay: Growth inhibition of human A549 cells; assay type: functional, cell-based
[2] = biological target: T1, Serine/threonine-protein kinase PAK 1 (Mus musculus, UniProt O88643); assay: Inhibition of PAK1 in v-Ha-RAS-transformed mouse NIH/3T3 cells incubated for 1 hr by immunoblot analysis
T1 sequence (O88643 whole entry): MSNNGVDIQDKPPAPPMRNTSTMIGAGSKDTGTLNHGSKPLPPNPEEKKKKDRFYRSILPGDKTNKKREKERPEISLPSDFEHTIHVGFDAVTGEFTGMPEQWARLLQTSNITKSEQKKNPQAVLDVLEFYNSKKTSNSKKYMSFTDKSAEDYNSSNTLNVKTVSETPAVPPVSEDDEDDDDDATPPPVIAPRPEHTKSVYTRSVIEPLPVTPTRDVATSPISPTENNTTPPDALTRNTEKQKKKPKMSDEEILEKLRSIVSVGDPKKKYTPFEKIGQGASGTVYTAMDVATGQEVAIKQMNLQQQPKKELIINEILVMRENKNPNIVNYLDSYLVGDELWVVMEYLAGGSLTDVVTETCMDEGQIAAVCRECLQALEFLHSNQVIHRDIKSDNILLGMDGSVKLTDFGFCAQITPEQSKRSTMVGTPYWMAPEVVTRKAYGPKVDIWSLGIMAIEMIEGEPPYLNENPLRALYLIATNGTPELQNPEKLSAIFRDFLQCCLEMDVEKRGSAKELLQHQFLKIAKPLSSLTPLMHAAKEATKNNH

[3] = biological target: Mitogen-activated protein kinase kinase kinase 11 (Homo sapiens, UniProt Q16584); assay: Inhibition of flag-tagged MLK3 (unknown origin) expressed in human HeLa cells assessed as reduction in enzyme autophosphorylation incubated for 20 mins by immunoprecipitatation; assay type: cell-based
Chain of Mitogen-activated protein kinase kinase kinase 11 (Q16584 whole entry): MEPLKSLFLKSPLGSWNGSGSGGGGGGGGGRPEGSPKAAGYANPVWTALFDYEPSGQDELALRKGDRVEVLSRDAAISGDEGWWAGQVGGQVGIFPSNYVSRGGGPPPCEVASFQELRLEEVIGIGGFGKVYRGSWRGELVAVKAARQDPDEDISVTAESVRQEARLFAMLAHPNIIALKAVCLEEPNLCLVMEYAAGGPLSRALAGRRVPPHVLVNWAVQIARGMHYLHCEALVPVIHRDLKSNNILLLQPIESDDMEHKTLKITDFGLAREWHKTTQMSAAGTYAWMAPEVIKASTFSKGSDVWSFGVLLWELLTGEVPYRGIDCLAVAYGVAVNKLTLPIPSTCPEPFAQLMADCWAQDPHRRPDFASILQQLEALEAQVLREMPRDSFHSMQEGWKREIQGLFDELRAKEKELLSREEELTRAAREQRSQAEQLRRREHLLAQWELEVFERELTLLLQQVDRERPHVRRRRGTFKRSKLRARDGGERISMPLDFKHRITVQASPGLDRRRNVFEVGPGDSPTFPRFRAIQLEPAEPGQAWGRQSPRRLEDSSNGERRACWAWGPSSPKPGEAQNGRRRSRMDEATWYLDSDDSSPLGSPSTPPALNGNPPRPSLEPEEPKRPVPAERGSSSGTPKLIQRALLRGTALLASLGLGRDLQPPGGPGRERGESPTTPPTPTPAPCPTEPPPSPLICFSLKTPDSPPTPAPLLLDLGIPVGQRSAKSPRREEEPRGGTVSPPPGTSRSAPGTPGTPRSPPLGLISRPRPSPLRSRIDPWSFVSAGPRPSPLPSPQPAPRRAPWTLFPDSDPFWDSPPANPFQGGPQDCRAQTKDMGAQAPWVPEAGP

A549 [4] = assay: Growth inhibition of RAS-transformed human A549 cells; assay type: functional, cell-based
[5] = biological target: T1, Serine/threonine-protein kinase PAK 1; assay: Inhibition of PAK1 in v-Ha-RAS-transformed mouse NIH/3T3 cells incubated for 48 hrs by immunoblot analysis
[6] = biological target: T2, Serine/threonine-protein kinase PAK 1 (Homo sapiens, UniProt Q13153); assay: Inhibition of PAK1 in estrogen-stimulated human MCF7 cells incubated for 48 hrs by immunoblot analysis; assay type: cell-based
T2 sequence (Q13153 whole entry): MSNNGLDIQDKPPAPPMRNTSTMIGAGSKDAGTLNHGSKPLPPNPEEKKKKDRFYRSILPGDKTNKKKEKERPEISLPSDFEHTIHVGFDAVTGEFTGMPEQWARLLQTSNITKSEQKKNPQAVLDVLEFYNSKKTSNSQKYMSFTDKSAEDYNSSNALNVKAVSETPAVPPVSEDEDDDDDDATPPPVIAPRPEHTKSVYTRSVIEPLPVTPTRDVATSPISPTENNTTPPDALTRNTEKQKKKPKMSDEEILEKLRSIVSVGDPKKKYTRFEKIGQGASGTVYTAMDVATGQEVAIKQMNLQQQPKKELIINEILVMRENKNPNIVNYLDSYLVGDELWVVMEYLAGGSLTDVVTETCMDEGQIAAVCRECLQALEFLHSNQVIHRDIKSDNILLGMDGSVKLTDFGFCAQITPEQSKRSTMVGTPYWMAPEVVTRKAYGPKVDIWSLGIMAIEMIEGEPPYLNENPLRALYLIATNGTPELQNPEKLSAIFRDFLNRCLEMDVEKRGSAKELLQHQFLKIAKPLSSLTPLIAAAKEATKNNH

[7] = biological target: T2, Serine/threonine-protein kinase PAK 1; assay: Inhibition of recombinant human PAK1 by ADP-Glo kinase assay
[8] = Cytotoxicity in human M8 cells by MTT assay; assay type: functional, cell-based
[9] = Stability assessed as shelf life at 4 degC; assay type: physicochemical
[10] = biological target: T2, Serine/threonine-protein kinase PAK 1; assay: Inhibition of PAK1 in human MCF7 cells transfected with constitutively active NH2-terminally truncated C1199 Tiam1 construct; assay type: cell-based
[11] = biological target: T2, Serine/threonine-protein kinase PAK 1; assay: Inhibition of PAK1 (unknown origin)
PC-3 = assay: Antitumor activity against human PC3 cells wenografted in mouse assessed as inhibition of tumor growth at 3 mg/kg/day; assay type: functional; conditions: read-out: TGI
[12] = biological target: T2, Serine/threonine-protein kinase PAK 1; assay: Inhibition of PAK1 in human A549 cells; assay type: cell-based
Caenorhabditis elegans [13] = assay: Increase in lifespan of Caenorhabditis elegans N2 var. Bristol at 40 uM; assay type: functional
Caenorhabditis elegans [14] = assay: Increase in lifespan of Caenorhabditis elegans age-1(hx546) at 40 uM; assay type: functional
Caenorhabditis elegans [15] = assay: Increase in lifespan of Caenorhabditis elegans; assay type: functional
Caenorhabditis elegans [16] = assay: Increase in lifespan of Caenorhabditis elegans N2 CGCb under 2 mM H2O2-induced oxidative stress conditions at 1 to 50 mg/L; assay type: functional
[17] = biological target: T2, Serine/threonine-protein kinase PAK 1; assay: Inhibition of HA-PAK1 (unknown origin) using histone H4 substrate and [gamma-32P] ATP by autoradiography
[18] = Potency index, ratio of IC50 for caffeic acid to IC50 for test compound for cytotoxicity in human M8 cells by MTT assay; assay type: functional
Caenorhabditis elegans [19] = assay: Increase in lifespan of Caenorhabditis elegans N2 at 100 uM; assay type: functional
[20] = biological target: T2, Serine/threonine-protein kinase PAK 1; assay: Inhibition of PAK1 (unknown origin) by cell culture based assay
[21] = Growth stimulation of HFDPC assessed as increase in cell viability incubated for 3 days by MTT assay; assay type: functional, Homo sapiens
[22] = biological target: Serine/threonine-protein kinase PAK 3 (Homo sapiens, UniProt O75914); assay: Inhibition of GST-tagged PAK3 (unknown origin) expressed in Escherichia coli using peptide PC9 substrate
Chain of Serine/threonine-protein kinase PAK 3 (O75914 whole entry): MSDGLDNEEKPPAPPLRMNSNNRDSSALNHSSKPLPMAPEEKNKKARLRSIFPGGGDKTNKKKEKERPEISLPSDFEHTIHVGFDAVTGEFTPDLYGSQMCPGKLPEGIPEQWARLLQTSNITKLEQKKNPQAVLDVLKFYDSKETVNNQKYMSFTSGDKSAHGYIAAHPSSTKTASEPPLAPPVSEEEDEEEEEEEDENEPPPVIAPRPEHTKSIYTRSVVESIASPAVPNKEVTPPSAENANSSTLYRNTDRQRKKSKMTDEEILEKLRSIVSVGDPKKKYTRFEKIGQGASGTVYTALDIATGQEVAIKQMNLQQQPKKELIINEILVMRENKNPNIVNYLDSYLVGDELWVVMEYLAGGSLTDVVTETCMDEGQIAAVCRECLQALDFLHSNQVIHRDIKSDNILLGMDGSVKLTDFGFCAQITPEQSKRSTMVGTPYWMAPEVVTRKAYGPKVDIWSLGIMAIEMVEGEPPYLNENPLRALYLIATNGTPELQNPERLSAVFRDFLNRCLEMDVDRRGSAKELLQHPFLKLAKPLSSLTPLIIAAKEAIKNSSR

Protein kinase C (PKC) = assay: Inhibition of rat brain PKC using […] derived peptide substrate
Mus musculus = assay: Increase in lifespan of C57BL/6J mouse at 2 mg/kg/day dosed in drinking water; assay type: functional; conditions: feed or water

SMILES: COc1ccccc1-n1cc(COC(=O)[C@]23CC[C@@H](C)[C@H](C)[C@H]2C2=CC[C@@H]4[C@@]5(C)CC[C@H](O)C(C)(C)[C@@H]5CC[C@@]4(C)[C@]2(C)CC3)nn1
IC50 (A549 [1]): 0.1 µM

SMILES: CC(C)(C)c1cc(/C=C(\C#N)C(N)=S)cc(C(C)(C)C)c1O [TYRPHOSTIN AG 879]
IC50 (A549 [1]): 0.005 µM

SMILES: CC(C)=CCC/C(C)=C/Cc1c([C@@H]2CC(=O)c3c(cc(O)c(CC=C(C)C)c3O)O2)ccc(O)c1O [NYMPHAEOL C]
IC50 (A549 [1]): 4 to 7 µM

SMILES: COc1ccc2[nH]cc(CCNC(C)=O)c2c1 [MELATONIN]
IC50 (A549 [1]): 1300 µM

SMILES: COc1c(C)c2c(c(O)c1C/C=C(\C)CCC(=O)OCCN1CCOCC1)C(=O)OC2 [MYCOPHENOLATE MOFETIL]
IC50 (A549 [1]): 0.05 to 0.5 µM

SMILES: C/C=C1\NC(=O)[C@H]2CSSCC/C=C/[C@H](CC(=O)N[C@H](C(C)C)C(=O)N2)OC(=O)[C@H](C(C)C)NC1=O [ROMIDEPSIN]
IC50 [5]: < 0.001 µM
IC50 [6]: < 0.001 µM

SMILES: Oc1ccc(/C=C/c2cc(O)cc(O)c2)cc1 [RESVERATROL]
IC50 (A549 [1]): 30 µM
IC50 [7]: 15 µM

SMILES: O=C(O)/C=C/c1ccc(O)c(O)c1 [CAFFEIC ACID]
IC50 [8]: 100 µM

SMILES: CC(C)(O)/C=C/C(=O)[C@](C)(O)[C@H]1[C@H](O)C[C@@]2(C)[C@@H]3CC=C4[C@@H](C=C(O)C(=O)C4(C)C)[C@]3(C)C(=O)C[C@]12C [CUCURBITACIN I]
IC50 (A549 [1]): 0.14 µM

SMILES: CC(C)[C@]12O[C@H]1[C@@H]1O[C@]13[C@]1(O[C@H]1C[C@H]1C4=C(CC[C@@]13C)C(=O)OC4)[C@@H]2OCOP(=O)([O-])[O-].[Na+].[Na+] [MINNELIDE]
Stability [9]: 2 yr

SMILES: CO[C@@H]1[C@@H](O)[C@H](O[C@@H]2[C@@H](O)[C@H](O[C@H]3[C@H](O)[C@@H](O[C@@H]4OC[C@@H](O)[C@H](O)[C@H]4O)[C@H](O[C@H]4[C@H](O[C@H]5CC[C@]6(C)[C@@H]7CCC89C(=O)O[C@@](C)(CCCC(C)C)[C@H]8[C@@H](OC(C)=O)C[C@@]9(C)C7=CC[C@H]6C5(C)C)OC[C@@H](OS(=O)(=O)O)[C@@H]4O)O[C@@H]3C)OC[C@H]2O)O[C@H](CO)[C@H]1O (stereo not given in full)
IC50 (A549 [1]): 0.6 to 1.5 µM
IC50 [7]: 1 µM
IC50 (A549 [4]): 1 µM

SMILES: COc1cc(/C=C/C(=O)CC(=O)/C=C/c2ccc(O)c(OC)c2)ccc1O [CURCUMIN]
IC50 (A549 [1]): 23 µM

SMILES: CC1=C(/C=C/C(C)=C/C=C/C(C)=C/C=C/C=C(C)/C=C/C=C(C)/C=C/C2=C(C)C(=O)C(O)CC2(C)C)C(C)(C)CC(O)C1=O (stereo not given)
IC50 (A549 [1]): 40 µM
Activity (Caenorhabditis elegans [13]): 16 - 30%
Activity (Caenorhabditis elegans [14]): 16 - 30%

SMILES: CC(=O)CCC=C(C)CCC=C(C)CCC=C(C)CCC=C(C)C
IC50 (A549 [1]): 10 µM

SMILES: CC(C)[C@]12O[C@H]1[C@@H]1O[C@]13[C@]1(O[C@H]1C[C@H]1C4=C(CC[C@@]13C)C(=O)OC4)[C@@H]2O [TRIPTOLIDE]
IC50 (A549 [1]): 0.03 µM
ILS (Caenorhabditis elegans [15]): 20%
ILS (Caenorhabditis elegans [16]): 20%

SMILES: CCCCCC(=O)c1c(O)cc(OC)c(Cl)c1O
IC50 (A549 [1]): 2 to 3 µM
IC50 [17]: 2.5 µM

SMILES: COc1ccccc1-n1cc(COC(=O)C2CCn3c(C(=O)c4ccccc4)ccc32)nn1 (stereo not given)
ILS (Caenorhabditis elegans [15]): 30%

SMILES: O=C(/C=C/c1ccc(O)c(O)c1)OCCc1ccccc1 [CAFFEIC ACID PHENETHYL ESTER]
IC50 [8]: 10 µM
Ratio IC50 [18]: 10
Activity (Caenorhabditis elegans [19]): 15%
IC50 (A549 [1]): 10 µM

SMILES: CC(C)=CCc1cc(/C=C/C(=O)O)cc(CC=C(C)C)c1O [ARTEPILLIN]
IC50 [20]: 25 µM
ED [21]: 20 µM
IC50 (A549 [1]): 25 µM

SMILES: CC(C)(C)c1cc(/C=C(\C#N)C(=S)NCCCCCCN)cc(C(C)(C)C)c1O
IC50 (A549 [1]): 0.005 µM

SMILES: C[C@H](CCCCC(=O)O)O[C@@H]1O[C@@H](C)[C@H](O)C[C@H]1O [DAUMONE]
IC50 (A549 [1]): 0.02 µM
ILS at 2 mg/kg/day (Mus musculus): 50%

The next lines start with results.

IC50 (A549 [1]): 1 µM
IC50 [2]: 1 µM
IC50 [3]: 0.02 µM
IC50 (A549 [4]): 1 µM
SMILES: CCSCc1ccc2c(c1)c1c3c(c4c5cc(CSCC)ccc5n5c4c1n2C1C[C@](O)(C(=O)OC)[C@]5(C)O1)CNC3=O

IC50 (A549 [1]): 4 to 7 µM
SMILES: CC(C)=CCC/C(C)=C/Cc1c([C@@H]2CC(=O)c3c(O)cc(O)cc3O2)ccc(O)c1O [NYMPHAEOL B]

IC50 (A549 [1]): 0.06 µM
SMILES: CCS(=O)(=O)c1cc(Nc2ncc(F)c(N(Cc3ccccc3C#N)c3cc(CO)ccc3C)n2)ccc1N1CCN(C)CC1

IC50 (A549 [1]): 0.25 µM
SMILES: CC(C)NC(=O)N1CC[C@H](NC2=Nc3cc(F)ccc3N(CC(F)F)c3ccc(Cl)cc32)C1

IC50 (A549 [1]): 0.01 µM
SMILES: Cc1ccc(-c2nn(C(C)(C)C)c3ncnc(N)c23)cc1

IC50 (A549 [1]): 0.225 µM
SMILES: COc1ccccc1-n1cc(COC(=O)/C=C/c2ccc(O)c(O)c2)nn1

IC50 [10]: 4 µM
SMILES: Cc1cc(C)cc(NC(=N)Nc2ccccc2C(F)(F)F)c1

IC50 (A549 [1]): 30 µM
IC50 [11]: 1 µM
SMILES: Oc1ccc2ccccc2c1SSc1c(O)ccc2ccccc12

IC50 (A549 [1]): 4 to 7 µM
SMILES: CC(C)=CCC/C(C)=C/Cc1c(O)cc2c(c1O)C(=O)C[C@@H](c1ccc(O)c(O)c1)O2 [NYMPHAEOL A]

IC50 (A549 [1]): 0.0134 µM
IC50 [12]: 0.5 µM
SMILES: COCCn1c2c([n+](Cc3cnccn3)c1C)C(=O)c1ccccc1C2=O [SEPANTRONIUM BROMIDE]
inhibition in vivo at 3 mg/kg/day (PC-3): > 50%

IC50 [22]: 0.001 µM
IC50 (Protein kinase C (PKC)): 0.001 µM
SMILES: CN[C@@H]1C[C@H]2O[C@@](C)([C@@H]1OC)n1c3ccc(O)cc3c3c4c(c5c6cc(O)ccc6n2c5c31)C(=O)NC4

IC50 (A549 [1]): > 1 µM
SMILES: CNc1ncc2cc(-c3ccc(-c4cccc(C)n4)cc3Cl)c(=O)n(C[C@H]3OC[C@H](N)CO3)c2n1
